From ChEMBL document CHEMBL3751852, “New mannose derivatives: The tetrazole analogue of mannose-6-phosphate as angiogenesis inhibitor” (2016)
Calls of active or inactive are those of the source. The calls are words filed in the database; no cut-off is given here.

Test system: Chorioallantoic membrane
Assay: Antiangiogenic activity in chicken chorioallantoic membrane assessed as area of neovascularization at 60 mg/ml administered on 7th embryonic day incubated for 4 days by microscopy (reference value: 100%)
Format: functional, Gallus gallus

| Compound | Activity [%] | Activity (Gallus gallus) |
| --- | --- | --- |
| CO[C@H]1O[C@H](CCC(=O)O)[C@@H](O)[C@H](O)[C@@H]1O | 70 |  |
| CO[C@H]1O[C@H](Cc2nnn[nH]2)[C@@H](O)[C@H](O)[C@@H]1O | 68 |  |
| CO[C@H]1O[C@H](CS(=O)(=O)c2ccccc2)[C@@H](O)[C@H](O)[C@@H]1O |  | inactive |
| CO[C@H]1O[C@H](CCP(=O)(O)O)[C@@H](O)[C@H](O)[C@@H]1O | 138 |  |
| CO[C@H]1O[C@H](COP(=O)(O)O)[C@@H](O)[C@H](O)[C@@H]1O | 43 |  |
